10 compounds from ChEMBL document CHEMBL5608222, “Development of 3'-Deoxy-3',4'-didehydro-nucleoside Prodrug Inhibitors of West Nile and Zika Viruses” (ACS Med Chem Lett, 2024) can be followed below.

Data set [1] has as its system West Nile virus. The experiment in a line: Antiviral activity against WNV infected in Huh-7 cells assessed as log reduction in viral titer at 0.1 mM preincubated for 24 hrs prior to compound washout followed by viral infection for 1 hr again media washout and compound addition for 3 days by neutral red staining based assay. Format: functional. The settings on record: time 96 hrs.

Data set [2] deals with West Nile virus. Put plainly: Antiviral activity against WNV infected in Huh-7 cells assessed as log reduction in viral titer at 1 mM preincubated for 24 hrs prior to compound washout followed by viral infection for 1 hr again media washout and compound addition for 3 days by neutral red staining based assay. In kind it is functional, organism-based. The settings on record: time 96.0 hrs.

Data set [3] has as its system Huh-7. The experiment in a line: Cytotoxicity against human Huh-7 cells at 1 mM. The settings on record: huh-7, 120 h, 1000 µM, time 5 day. Format: toxicity, cell-based.
In data set [4] the test system is Huh-7. Put plainly: Cytotoxicity against human Huh-7 cells at 0.1 to 1 mM incubated for 6 days by neutral red staining based assay. In kind it is toxicity, cell-based. The settings on record: huh-7, 144 h, 1000 µM, dose 0.1-1 mM, time 6 day.
Data set [5] in a line: Cytotoxicity against human Huh-7 cells assessed as cell viability at 1 mM incubated for 6 days by neutral red staining based assay. In kind it is toxicity. The settings on record: time 6 day, read-out: Activity.
Data set [6] in a line: Cytotoxicity against african green monkey Vero cells assessed as decrease in cell viability at 0.1 to 1 mM incubated for 5 days by Alamar blue assay. In kind it is toxicity, cell-based. The settings on record: chlorocebus sabaeus, 120 h, 1000 µM, dose 0.1-1 mM, time 5 day. A general note: Resazurin is reduced to fluorescent resorufin, in cell work by metabolically active cells.

Data set [7] has as its system Huh-7. The experiment in a line: Cytotoxicity against human Huh-7 cells assessed as decrease in cell viability at 0.1 to 1 mM incubated for 5 days by Alamar blue assay. In kind it is toxicity, cell-based. The settings on record: huh-7, 120 h, 1000 µM, dose 0.1-1 mM, time 5 day.
Data set [8] is described as follows: Cytotoxicity against african green monkey Vero cells assessed as decrease in cell viability at 0.1 to 1 mM incubated for 2 days by Alamar blue assay. In kind it is toxicity, cell-based. The settings on record: chlorocebus sabaeus, 48 h, 1000 µM, dose 0.1-1 mM, time 2 day.
Data set [9] relates to West Nile virus. Put plainly: Antiviral activity against WNV infected in Huh-7 cells assessed as log reduction in viral titer at 0.1 to 1 mM preincubated for 24 hrs prior to compound washout followed by viral infection for 1 hr again media washout and compound addition for 3 days by neutral red staining based assay. The settings on record: dose 0.1-1 mM; for Activity: time 96.0 hrs. Format: functional.

The subject of data set [10] is Zika virus. Put plainly: Antiviral activity against ZIKV infected in Huh-7 cells assessed as reduction in viral titer at 0.1 to 1 mM preincubated for 24 hrs prior to compound washout followed by viral infection for 1 hr again media washout and compound addition for 3 days by neutral red staining based assay. Format: functional. The settings on record: dose 0.1-1 mM.

Data set [11] can be described thus: Cytotoxicity against african green monkey Vero cells assessed as decrease in cell viability at 1 mM incubated for 5 days by Alamar blue assay. In kind it is toxicity, cell-based. The settings on record: chlorocebus sabaeus, 120 h, 1000 µM, time 5 day.
Data set [12] has as its system Huh-7. The experiment in a line: Cytotoxicity against human Huh-7 cells assessed as decrease in cell viability at 1 mM incubated for 5 days by Alamar blue assay. The settings on record: huh-7, 120 h, 1000 µM, time 5 day. Format: toxicity, cell-based.
Data set [13] relates to Zika virus. Put plainly: Antiviral activity against ZIKV infected in Huh-7 cells assessed as log reduction in viral titer at 0.1 mM preincubated for 24 hrs prior to compound washout followed by viral infection for 1 hr again media washout and compound addition for 3 days by neutral red staining based assay. The settings on record: for Activity: time 96.0 hrs. Format: functional.

Data set [14] relates to Zika virus. The experiment in a line: Antiviral activity against ZIKV infected in Huh-7 cells assessed as log reduction in viral titer at 1 mM preincubated for 24 hrs prior to compound washout followed by viral infection for 1 hr again media washout and compound addition for 3 days by neutral red staining based assay. Format: functional.

The source made the active and inactive calls. The rule behind the calls is not given here.

Take `Nc1ncnc2c1ncn2[C@@H]1OC(CO)=C[C@H]1O`: the “log(activity)” value in the data set with West Nile virus [1] amounted to 1.5. In addition, in the data set on West Nile virus [2], the result was Active. For the same compound, the Activity result with Huh-7 [3] is given as “Toxic”; with Huh-7 [4], “Toxic”; in [6] it was “Non-Toxic”; in the data set on Huh-7 [7], less than 25%; in data set [8], “Toxic”. For the same compound, the viability at 144 h, 1000 µM in data set [5] amounted to 70%.
Turning to `O=c1ccn([C@@H]2OC(CO)=C[C@H]2O)c(=O)[nH]1`, the result in the data set with West Nile virus [9] was inactive. Moreover, the Activity result (in the data set on Huh-7 [4]; in [6]; with Huh-7 [7]) was “Non-Toxic” each time.
For `Cc1cn([C@@H]2OC(CO[P@@](=O)(N[C@@H](C)C(=O)OC(C)C)Oc3ccccc3)=C[C@H]2O)c(=O)[nH]c1=O`, the outcome in the data set on West Nile virus [9] and with Zika virus [10] (time 96.0 hrs) was inactive. In addition, the Activity result in the data set with Huh-7 [4] is given as “Non-Toxic”; in data set [11] it was “Non-Toxic”; with Huh-7 [12], 50%.
On to `CC(C)OC(=O)[C@H](C)N[P@](=O)(OCC1=C[C@@H](O)[C@H](n2cnc3c(=O)[nH]c(N)nc32)O1)Oc1ccccc1`, for which the outcome with West Nile virus [9] was inactive. The result with Zika virus [13] was Active. The “log(activity)” value with Zika virus [14] (time 96 hrs) is 3.8. Moreover, the Activity result (in the data set on Huh-7 [4]; in data set [6]; with Huh-7 [7]) was “Non-Toxic” in each case.
Take `Nc1nc2c(ncn2[C@@H]2OC(CO)=C[C@H]2O)c(=O)[nH]1`: the result in the data set with West Nile virus [9] was inactive. The Activity result (in the data set with Huh-7 [4]; in data set [6]; in the data set on Huh-7 [7]) was “Non-Toxic” in each case.
With `Cc1cn([C@@H]2OC(CO)=C[C@H]2O)c(=O)[nH]c1=O`, in the data set with West Nile virus [9], the result was inactive. Moreover, the Activity entry (in the data set with Huh-7 [4]; in data set [6]; with Huh-7 [7]) was “Non-Toxic” throughout.
For the compound `CC(C)OC(=O)[C@H](C)N[P@](=O)(OCC1=C[C@@H](O)[C@H](n2cnc3c(=O)[nH]cnc32)O1)Oc1ccccc1`, the result in the data set on West Nile virus [9] and in the data set with Zika virus [10] (time 96.0 hrs) was inactive. For the same compound, the Activity result (in the data set with Huh-7 [4]; in [6]; in the data set with Huh-7 [7]) was “Non-Toxic” in each case.
Consider `CC(C)OC(=O)[C@H](C)N[P@](=O)(OCC1=C[C@@H](O)[C@H](n2ccc(=O)[nH]c2=O)O1)Oc1ccccc1`, for which the result in the data set on West Nile virus [9] and in the data set on Zika virus [14] (time 96.0 hrs) was inactive. The “log(activity)” value in the data set with Zika virus [13] (time 96 hrs) came out at 2.5. Besides, the Activity result with Huh-7 [4] was “Non-Toxic”; in data set [11] it was “Non-Toxic”; in the data set with Huh-7 [12] it was 70%.
As for `CC(C)OC(=O)[C@H](C)N[P@](=O)(OCC1=C[C@@H](O)[C@H](n2cnc3c(N)ncnc32)O1)Oc1ccccc1`, the entries for the “log(activity)” value in the data set with West Nile virus [9] (time 96 hrs) and in the data set on West Nile virus [1] were 4.8 and 2.5, respectively. Moreover, the outcome in the data set on West Nile virus [2] and with Zika virus [13] was Active. In addition, the Activity result with Huh-7 [3] is listed as “Toxic”; with Zika virus [10] (time 96 hrs), 100%; in the data set with Huh-7 [4] it was “Toxic”; in data set [11], 80%; in the data set with Huh-7 [12], 25%. Besides, the viability at 144 h, 1000 µM in data set [5] came to 70%.
Regarding `O=c1[nH]cnc2c1ncn2[C@@H]1OC(CO)=C[C@H]1O`, the outcome in the data set on West Nile virus [9] was inactive. Moreover, the Activity result (in the data set on Huh-7 [4]; in data set [6]; in the data set with Huh-7 [7]) was “Non-Toxic” each time.
